Reference: PubChem BioAssay (NCI)
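In this assay, cells in 96-well plates receive the compound at five concentrations for 48 hours. Endpoints are linearly interpolated between the surrounding concentrations. TGI is the concentration that stops growth completely.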

How the values were obtained:
Experiment in all cases: NCI-60 cell line screen, 48 h
SF-295 CNS = tested on: SF-295 CNS
SN12C renal = tested on: SN12C renal
HCT-15 colon = tested on: HCT-15 colon
HS 578T breast = tested on: HS 578T breast
U251 CNS = tested on: U251 CNS
DLD-1 colon = tested on: DLD-1 colon
SW-620 colon = tested on: SW-620 colon
CCRF-CEM leukemia = tested on: CCRF-CEM leukemia
SNB-78 CNS = tested on: SNB-78 CNS
BT-549 breast = tested on: BT-549 breast
UACC-257 melanoma = tested on: UACC-257 melanoma
NCI-H226 lung = tested on: NCI-H226 lung
OVCAR-8 ovarian = tested on: OVCAR-8 ovarian
SNB-19 CNS = tested on: SNB-19 CNS
HCC-2998 colon = tested on: HCC-2998 colon
M14 melanoma = tested on: M14 melanoma
MDA-MB-435 = tested on: MDA-MB-435
OVCAR-4 ovarian = tested on: OVCAR-4 ovarian
DMS 273 small cell lung = tested on: DMS 273 small cell lung
HCT-116 colon = tested on: HCT-116 colon
NCI/ADR-RES ovarian = tested on: NCI/ADR-RES ovarian
PC-3 prostate = tested on: PC-3 prostate
EKVX NSCLC = tested on: EKVX NSCLC
COLO 205 colon = tested on: COLO 205 colon
T-47D breast = tested on: T-47D breast
K-562 leukemia = tested on: K-562 leukemia
NCI-H460 lung = tested on: NCI-H460 lung
SK-MEL-2 melanoma = tested on: SK-MEL-2 melanoma
ACHN renal = tested on: ACHN renal
A498 renal = tested on: A498 renal
MALME-3M melanoma = tested on: MALME-3M melanoma
SF-268 CNS = tested on: SF-268 CNS
RXF 393 renal = tested on: RXF 393 renal
786-0 renal = tested on: 786-0 renal
MDA-MB-231 breast = tested on: MDA-MB-231 breast
SK-OV-3 ovarian = tested on: SK-OV-3 ovarian
MOLT-4 leukemia = tested on: MOLT-4 leukemia
UACC-62 melanoma = tested on: UACC-62 melanoma
KM12 colon = tested on: KM12 colon
LOX IMVI melanoma = tested on: LOX IMVI melanoma
HT29 colon = tested on: HT29 colon
HL-60(TB) leukemia = tested on: HL-60(TB) leukemia
M19-MEL melanoma = tested on: M19-MEL melanoma
NCI-H522 lung = tested on: NCI-H522 lung
SR leukemia = tested on: SR leukemia
SF-539 CNS = tested on: SF-539 CNS
CAKI-1 renal = tested on: CAKI-1 renal
HOP-18 NSCLC = tested on: HOP-18 NSCLC
TK-10 renal = tested on: TK-10 renal
SNB-75 CNS = tested on: SNB-75 CNS
DU-145 prostate = tested on: DU-145 prostate
HOP-62 NSCLC = tested on: HOP-62 NSCLC
RPMI-8226 leukemia = tested on: RPMI-8226 leukemia
UO-31 renal = tested on: UO-31 renal
OVCAR-5 ovarian = tested on: OVCAR-5 ovarian
A549 NSCLC = tested on: A549 NSCLC
SK-MEL-28 melanoma = tested on: SK-MEL-28 melanoma
OVCAR-3 ovarian = tested on: OVCAR-3 ovarian
HOP-92 NSCLC = tested on: HOP-92 NSCLC
SK-MEL-5 melanoma = tested on: SK-MEL-5 melanoma
XF 498 CNS = tested on: XF 498 CNS
MDA-N = tested on: MDA-N
IGROV1 ovarian = tested on: IGROV1 ovarian
LXFL 529 NSCLC = tested on: LXFL 529 NSCLC
MCF7 breast = tested on: MCF7 breast
NCI-H23 lung = tested on: NCI-H23 lung

`O=C1C(c2ccc([N+](=O)[O-])cc2)=C(Cl)C(=O)c2c(O)cccc21` showed a TGI (SF-295 CNS) of 98.9 µM, a TGI (SN12C renal) of 39.9 µM and a TGI (HCT-15 colon) of 54 µM. The TGI (HS 578T breast) was 65.9 µM, the TGI (U251 CNS) was 32.6 µM and the TGI (DLD-1 colon) was 25.3 µM. The TGI (SW-620 colon) was 15.5 µM, the TGI (CCRF-CEM leukemia) was > 100 µM and the TGI (SNB-78 CNS) was 63.8 µM. For the same compound, the TGI (BT-549 breast) was 32.1 µM, the TGI (UACC-257 melanoma) was 32.9 µM and the TGI (NCI-H226 lung) was > 59.3 µM. For the same compound, the TGI (OVCAR-8 ovarian) was > 86.4 µM, the TGI (SNB-19 CNS) was 49.6 µM and the TGI (HCC-2998 colon) was > 100 µM. For the same compound, the TGI (M14 melanoma) was 46.5 µM, the TGI (MDA-MB-435) was 31.9 µM and the TGI (OVCAR-4 ovarian) was 32.1 µM. The TGI (DMS 273 small cell lung) was > 100 µM, the TGI (HCT-116 colon) was > 56.6 µM and the TGI (NCI/ADR-RES ovarian) was 66.2 µM. It also gave a TGI (PC-3 prostate) of 57.3 µM, a TGI (EKVX NSCLC) of 46.6 µM and a TGI (COLO 205 colon) of 32.4 µM. For the same compound, the TGI (T-47D breast) was 52.6 µM, the TGI (K-562 leukemia) was > 100 µM and the TGI (NCI-H460 lung) was > 100 µM. For the same compound, the TGI (SK-MEL-2 melanoma) was 34.3 µM, the TGI (ACHN renal) was 33 µM and the TGI (A498 renal) was 59.3 µM. It also gave a TGI (MALME-3M melanoma) of 34.8 µM, a TGI (SF-268 CNS) of 49.8 µM and a TGI (RXF 393 renal) of 29.1 µM. The TGI (786-0 renal) was 28.9 µM, the TGI (MDA-MB-231 breast) was 31.8 µM and the TGI (SK-OV-3 ovarian) was > 100 µM. For the same compound, the TGI (MOLT-4 leukemia) was > 100 µM, the TGI (UACC-62 melanoma) was 35.6 µM and the TGI (KM12 colon) was > 62.6 µM. The TGI (LOX IMVI melanoma) was 32.6 µM, the TGI (HT29 colon) was 43.5 µM and the TGI (HL-60(TB) leukemia) was > 100 µM. The TGI (M19-MEL melanoma) was 36 µM, the TGI (NCI-H522 lung) was 21.6 µM and the TGI (SR leukemia) was > 100 µM. The TGI (SF-539 CNS) was 39.6 µM, the TGI (CAKI-1 renal) was 50.2 µM and the TGI (HOP-18 NSCLC) was 19.6 µM. For the same compound, the TGI (TK-10 renal) was 34.7 µM, the TGI (SNB-75 CNS) was 96.9 µM and the TGI (DU-145 prostate) was 42.7 µM. The TGI (HOP-62 NSCLC) was > 100 µM, the TGI (RPMI-8226 leukemia) was > 100 µM and the TGI (UO-31 renal) was 19.1 µM. The TGI (OVCAR-5 ovarian) was > 100 µM, the TGI (A549 NSCLC) was > 100 µM and the TGI (SK-MEL-28 melanoma) was 33.9 µM. The TGI (OVCAR-3 ovarian) was 32.6 µM, the TGI (HOP-92 NSCLC) was 33 µM and the TGI (SK-MEL-5 melanoma) was > 54.8 µM. The TGI (XF 498 CNS) was 22.4 µM, the TGI (MDA-N) was 34.5 µM and the TGI (IGROV1 ovarian) was 42.4 µM. It also gave a TGI (LXFL 529 NSCLC) of 23.2 µM, a TGI (MCF7 breast) of 37.7 µM and a TGI (NCI-H23 lung) of 36.6 µM.
